Experimental data reported in US20240158446A1, “CYCLIC COMPOUND HAVING SELECTIVE INHIBITORY ACTION ON KRAS OVER HRAS AND NRAS” (CHUGAI SEIYAKU KABUSHIKI KAISHA, priority 2021, published 2024).

How the values were obtained:
[1] = target: GDP-bound HRAS wild-type protein (Homo sapiens, UniProt P01112); test: Binding to HRAS by surface plasmon resonance (SPR), Single Cycle Kinetics; conditions: SPR, GDP-bound HRAS wild-type protein vs GDP-bound KRAS wild-type protein
[2] = target: GDP-bound KRAS wild-type protein (Homo sapiens, UniProt P01116); test: Binding to KRAS by surface plasmon resonance (SPR), Single Cycle Kinetics; conditions: SPR, Single Cycle Kinetics, GDP-bound KRAS wild-type protein; read-out: KRAS KD
[3] = target: GDP-bound NRAS wild-type protein (Homo sapiens, UniProt P01111); test: Binding to NRAS by surface plasmon resonance (SPR), Single Cycle Kinetics; conditions: SPR, GDP-bound NRAS wild-type protein vs GDP-bound KRAS wild-type protein
GDP-bound NRAS wild-type protein, sequence (P01111 whole entry): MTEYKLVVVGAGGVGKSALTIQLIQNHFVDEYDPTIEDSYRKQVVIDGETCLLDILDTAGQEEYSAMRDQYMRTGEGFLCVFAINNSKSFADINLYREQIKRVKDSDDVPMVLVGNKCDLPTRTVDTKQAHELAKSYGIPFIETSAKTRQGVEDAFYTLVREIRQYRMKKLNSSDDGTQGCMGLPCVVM

GDP-bound HRAS wild-type protein, sequence (P01112 whole entry): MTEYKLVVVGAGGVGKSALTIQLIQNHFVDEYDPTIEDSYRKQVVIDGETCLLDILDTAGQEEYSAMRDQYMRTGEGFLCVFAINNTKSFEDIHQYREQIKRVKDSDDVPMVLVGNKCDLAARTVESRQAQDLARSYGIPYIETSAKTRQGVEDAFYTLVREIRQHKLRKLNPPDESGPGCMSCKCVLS
GDP-bound KRAS wild-type protein, sequence (P01116 whole entry): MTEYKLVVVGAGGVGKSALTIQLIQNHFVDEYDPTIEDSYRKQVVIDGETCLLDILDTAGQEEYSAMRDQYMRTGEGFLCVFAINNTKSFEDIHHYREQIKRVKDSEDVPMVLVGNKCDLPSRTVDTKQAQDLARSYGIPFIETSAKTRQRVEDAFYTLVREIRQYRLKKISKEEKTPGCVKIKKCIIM

| SMILES | Kd [2] [pM] | HRAS/KRAS (ratio of KD value for HRAS to KD value for KRAS) [1] | NRAS/KRAS (ratio of KD value for NRAS to KD value for KRAS) [3] |
| --- | --- | --- | --- |
| CCOC[C@H]1C(=O)N[C@@H]([C@@H](C)CC)C(=O)N2CCC[C@H]2C(=O)N(C)[C@H]2C/C=C\CCN(C2=O)[C@@H](Cc2ccc(C(F)(F)F)cc2)C(=O)N(C)CC(=O)N[C@@H](CCc2ccc(C(F)(F)F)c(OC)c2)C(=O)N2C[C@H](OCC)C[C@H]2C(=O)N(C)C2(CCC2)C(=O)N(C)[C@@H](C(CC)CC)C(=O)N(C)[C@H](C(=O)N(C)C)CC(=O)N1C [PP2319] | 350 | A (a compound having 10 or more and less than 20 is denoted as A) | AA (a compound having 20 or more is denoted as AA) |
| CCC[C@H]1C(=O)N[C@@H]([C@@H](C)CC)C(=O)N2CCC[C@H]2C(=O)N(C)[C@H]2C/C=C\CCN(C2=O)[C@@H](Cc2ccc(C(F)(F)F)cc2)C(=O)N(C)CC(=O)N[C@@H](CCc2ccc(C(F)(F)F)c(OC)c2)C(=O)N2C[C@H](OCC)C[C@H]2C(=O)N(C)C2(CCC2)C(=O)N(C)[C@@H](C2CCCC2)C(=O)N(C)[C@H](C(=O)N(C)C)CC(=O)N1C [PP2320, (1S,4S,10S,13S,17S,20S,26S,28R,32S,38S,42Z)-20-cyclopentyl-28-ethoxy-32-[2-[3-methoxy-4-(trifluoromethyl)phenyl]ethyl]-N,N,2,14,18,21,24,36-octamethyl-10-[(1S)-1-methylpropyl]-3,9,12,15,19,22,25,31,34,37,45-undecaoxo-13-propyl-38-[[4-(trifluoromethyl)phenyl]methyl]spiro[2,8,11,14,18,21,24,30,33,36,39-undecazatetracyclo[37.5.1.0^4,8.0^26,30]pentatetracont-42-ene-23,1′-cyclobutane]-17-carboxamide] | 110 | A (a compound having 10 or more and less than 20 is denoted as A) | A (a compound having 10 or more and less than 20 is denoted as A) |
| CCCOC[C@H]1C(=O)N[C@@H]([C@@H](C)CC)C(=O)N2CCC[C@H]2C(=O)N(C)[C@H]2C/C=C\CCN(C2=O)[C@@H](Cc2ccc(C(F)(F)F)cc2)C(=O)N(C)CC(=O)N[C@@H](CCc2ccc(C(F)(F)F)c(OC)c2)C(=O)N2C[C@H](OCC)C[C@H]2C(=O)N(C)C2(CCC2)C(=O)N(C)[C@@H](C2CCCC2)C(=O)N(C)[C@H](C(=O)N(C)C)CC(=O)N1C [PP2322] | 180 | B (a compound having 3 or more and less than 10 is denoted as B) | A (a compound having 10 or more and less than 20 is denoted as A) |
| CCCOC[C@H]1C(=O)N[C@@H]([C@@H](C)CC)C(=O)N(C2CC2)CC(=O)N(C)[C@H]2C/C=C\CCN(C2=O)[C@@H](Cc2ccc(C)cc2)C(=O)N(C)CC(=O)N[C@@H](CCc2ccc(C(F)(F)F)c(OC)c2)C(=O)N2C[C@H](OCC)C[C@H]2C(=O)N(C)C2(CCC2)C(=O)N(C)[C@@H](C(CC)CC)C(=O)N(C)[C@H](C(=O)N(C)C)CC(=O)N1C [PP2327] | 500 | A (a compound having 10 or more and less than 20 is denoted as A) | A (a compound having 10 or more and less than 20 is denoted as A) |
| CCC[C@H]1C(=O)N[C@@H]([C@@H](C)CC)C(=O)N(C2CC2)CC(=O)N(C)[C@H]2C/C=C\CCN(C2=O)[C@@H](Cc2ccc(C)cc2)C(=O)N(C)CC(=O)N[C@@H](CCc2ccc(C(F)(F)F)c(OC)c2)C(=O)N2C[C@H](OCC)C[C@H]2C(=O)N(C)C2(CCC2)C(=O)N(C)[C@@H](C2CCCC2)C(=O)N(C)[C@H](C(=O)N(C)C)CC(=O)N1C [PP2328, (2S,8S,12R,14S,20S,23S,27S,30S,36S,38Z)-20-cyclopentyl-32-cyclopropyl-12-ethoxy-8-[2-[3-methoxy-4-(trifluoromethyl)phenyl]ethyl]-N,N,4,16,19,22,26,35-octamethyl-30-[(1S)-1-methylpropyl]-3,6,9,15,18,21,25,28,31,34,42-undecaoxo-27-propyl-2-(p-tolylmethyl)spiro[1,4,7,10,16,19,22,26,29,32,35-undecazatricyclo[34.5.1.0^10,14]dotetracont-38-ene-17,1′-cyclobutane]-23-carboxamide] | 79 | A (a compound having 10 or more and less than 20 is denoted as A) | A (a compound having 10 or more and less than 20 is denoted as A) |
| CCC[C@H]1C(=O)N[C@@H]([C@@H](C)CC)C(=O)N2CCC[C@H]2C(=O)N(C)[C@H]2C/C=C\CCN(C2=O)[C@@H](Cc2ccc(C)cc2)C(=O)N(C)CC(=O)N[C@@H](CCc2ccc(C(F)(F)F)c(OC)c2)C(=O)N2C[C@H](OCC)C[C@H]2C(=O)N(C)C2(CCC2)C(=O)N(C)[C@@H](C(CC)CC)C(=O)N(C)[C@H](C(=O)N(C)C)CC(=O)N1C [PP2329] | 420 | A (a compound having 10 or more and less than 20 is denoted as A) | A (a compound having 10 or more and less than 20 is denoted as A) |
| CCCOC[C@H]1C(=O)N[C@@H]([C@@H](C)CC)C(=O)N(C2CC2)CC(=O)N(C)[C@H]2C/C=C\CCN(C2=O)[C@@H](Cc2ccc(C)cc2)C(=O)N(C)CC(=O)N[C@@H](CCc2ccc(C(F)(F)F)c(OC)c2)C(=O)N2C[C@H](OCC)C[C@H]2C(=O)N(C)C2(CCC2)C(=O)N(C)[C@@H](C2CCCC2)C(=O)N(C)[C@H](C(=O)N(C)C)CC(=O)N1C [PP2330] | 110 | A (a compound having 10 or more and less than 20 is denoted as A) | A (a compound having 10 or more and less than 20 is denoted as A) |

Second part, led by results:

| Kd [2] [pM] | SMILES | HRAS/KRAS (ratio of KD value for HRAS to KD value for KRAS) [1] | NRAS/KRAS (ratio of KD value for NRAS to KD value for KRAS) [3] |
| --- | --- | --- | --- |
| 360 | CCCOC[C@H]1C(=O)N[C@@H]([C@@H](C)CC)C(=O)N2CCC[C@H]2C(=O)N(C)[C@H]2C/C=C\CCN(C2=O)[C@@H](Cc2ccc(C)cc2)C(=O)N(C)CC(=O)N[C@@H](CCc2ccc(C(F)(F)F)c(OC)c2)C(=O)N2C[C@H](OCC)C[C@H]2C(=O)N(C)C2(CCC2)C(=O)N(C)[C@@H](C(CC)CC)C(=O)N(C)[C@H](C(=O)N(C)C)CC(=O)N1C [PP2331] | A (a compound having 10 or more and less than 20 is denoted as A) | AA (a compound having 20 or more is denoted as AA) |
| 100 | CCC[C@H]1C(=O)N[C@@H]([C@@H](C)CC)C(=O)N2CCC[C@H]2C(=O)N(C)[C@H]2C/C=C\CCN(C2=O)[C@@H](Cc2ccc(C)cc2)C(=O)N(C)CC(=O)N[C@@H](CCc2ccc(C(F)(F)F)c(OC)c2)C(=O)N2C[C@H](OCC)C[C@H]2C(=O)N(C)C2(CCC2)C(=O)N(C)[C@@H](C2CCCC2)C(=O)N(C)[C@H](C(=O)N(C)C)CC(=O)N1C [PP2332] | B (a compound having 3 or more and less than 10 is denoted as B) | A (a compound having 10 or more and less than 20 is denoted as A) |
| 130 | CCCOC[C@H]1C(=O)N[C@@H]([C@@H](C)CC)C(=O)N2CCC[C@H]2C(=O)N(C)[C@H]2C/C=C\CCN(C2=O)[C@@H](Cc2ccc(C)cc2)C(=O)N(C)CC(=O)N[C@@H](CCc2ccc(C(F)(F)F)c(OC)c2)C(=O)N2C[C@H](OCC)C[C@H]2C(=O)N(C)C2(CCC2)C(=O)N(C)[C@@H](C2CCCC2)C(=O)N(C)[C@H](C(=O)N(C)C)CC(=O)N1C [PP2334] | B (a compound having 3 or more and less than 10 is denoted as B) | A (a compound having 10 or more and less than 20 is denoted as A) |
